The text below walks through data of BindingDB's records for doi:10.1038/sj.bjp.0702201 (Smithkline Beecham Pharmaceuticals, 1998).

As usually defined, the Ki is the equilibrium dissociation constant of an inhibitor or competing ligand from its target. A higher Ki goes with lower affinity.

Experiment [1] has as its target 5-hydroxytryptamine receptor 2B (Homo sapiens, UniProt P41595).
For experiment [2], the target named is Muscarinic acetylcholine receptor M3 (Homo sapiens, UniProt P20309).
Experiment [3] has as its target 5-hydroxytryptamine receptor 4 (Sus scrofa, UniProt Q29006).
The target in experiment [4] is 5-hydroxytryptamine receptor 6 (Homo sapiens, UniProt P50406).
Sequence of 5-hydroxytryptamine receptor 6 (P50406 whole entry): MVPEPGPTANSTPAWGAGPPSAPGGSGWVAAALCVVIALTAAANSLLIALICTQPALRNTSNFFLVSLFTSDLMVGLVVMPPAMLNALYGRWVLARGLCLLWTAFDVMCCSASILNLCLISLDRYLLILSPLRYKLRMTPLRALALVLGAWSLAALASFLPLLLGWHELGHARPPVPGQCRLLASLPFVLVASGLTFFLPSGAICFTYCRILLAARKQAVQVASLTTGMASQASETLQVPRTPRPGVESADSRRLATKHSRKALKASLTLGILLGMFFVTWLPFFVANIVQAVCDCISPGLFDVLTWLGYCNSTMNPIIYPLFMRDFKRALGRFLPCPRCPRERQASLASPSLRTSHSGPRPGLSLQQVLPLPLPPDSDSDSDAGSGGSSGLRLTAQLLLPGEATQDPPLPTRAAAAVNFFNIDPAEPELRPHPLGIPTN
The next experiment deals with D(2) dopamine receptor (Homo sapiens, UniProt P14416).
Sequence of D(2) dopamine receptor (P14416 whole entry): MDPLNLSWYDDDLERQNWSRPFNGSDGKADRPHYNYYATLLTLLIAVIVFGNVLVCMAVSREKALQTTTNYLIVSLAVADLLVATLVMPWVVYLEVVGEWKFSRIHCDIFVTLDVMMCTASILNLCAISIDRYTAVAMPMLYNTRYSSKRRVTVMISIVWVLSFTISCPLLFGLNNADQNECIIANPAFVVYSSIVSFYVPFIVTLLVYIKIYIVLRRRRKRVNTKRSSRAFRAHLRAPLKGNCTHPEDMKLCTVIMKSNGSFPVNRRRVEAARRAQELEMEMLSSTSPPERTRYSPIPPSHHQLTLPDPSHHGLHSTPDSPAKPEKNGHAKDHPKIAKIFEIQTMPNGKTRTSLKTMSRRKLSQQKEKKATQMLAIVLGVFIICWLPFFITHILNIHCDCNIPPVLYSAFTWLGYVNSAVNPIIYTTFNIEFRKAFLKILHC
The target of experiment [5] is T1, 5-hydroxytryptamine receptor 1F (Homo sapiens, UniProt P30939).
T1 sequence (P30939 whole entry): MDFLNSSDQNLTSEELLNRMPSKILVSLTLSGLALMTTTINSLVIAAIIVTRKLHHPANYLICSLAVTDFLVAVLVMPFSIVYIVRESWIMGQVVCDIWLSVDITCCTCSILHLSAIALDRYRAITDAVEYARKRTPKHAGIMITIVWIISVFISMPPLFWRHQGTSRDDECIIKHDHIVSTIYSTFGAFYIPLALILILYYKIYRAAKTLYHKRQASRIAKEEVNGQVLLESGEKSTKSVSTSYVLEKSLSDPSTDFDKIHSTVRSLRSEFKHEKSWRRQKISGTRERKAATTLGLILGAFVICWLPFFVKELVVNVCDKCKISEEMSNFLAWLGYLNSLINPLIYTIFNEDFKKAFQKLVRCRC

Experiment [6] has as its target T2, 5-hydroxytryptamine receptor 2C (Homo sapiens, UniProt P28335).
T2 sequence (P28335 whole entry): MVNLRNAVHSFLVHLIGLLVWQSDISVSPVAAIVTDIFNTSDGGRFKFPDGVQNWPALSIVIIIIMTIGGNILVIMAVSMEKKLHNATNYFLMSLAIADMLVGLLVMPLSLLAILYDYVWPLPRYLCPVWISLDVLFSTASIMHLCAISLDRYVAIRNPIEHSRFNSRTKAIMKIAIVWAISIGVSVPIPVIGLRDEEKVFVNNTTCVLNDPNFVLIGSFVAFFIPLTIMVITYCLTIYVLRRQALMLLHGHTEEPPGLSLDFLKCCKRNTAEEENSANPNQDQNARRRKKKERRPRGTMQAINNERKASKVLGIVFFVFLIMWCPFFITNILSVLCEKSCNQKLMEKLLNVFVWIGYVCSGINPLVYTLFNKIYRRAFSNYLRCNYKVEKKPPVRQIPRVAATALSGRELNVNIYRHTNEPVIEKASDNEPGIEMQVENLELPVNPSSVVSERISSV

For experiment [7], the target named is 5-hydroxytryptamine receptor 2A (Homo sapiens, UniProt P28223).
Sequence of 5-hydroxytryptamine receptor 2A (P28223 whole entry): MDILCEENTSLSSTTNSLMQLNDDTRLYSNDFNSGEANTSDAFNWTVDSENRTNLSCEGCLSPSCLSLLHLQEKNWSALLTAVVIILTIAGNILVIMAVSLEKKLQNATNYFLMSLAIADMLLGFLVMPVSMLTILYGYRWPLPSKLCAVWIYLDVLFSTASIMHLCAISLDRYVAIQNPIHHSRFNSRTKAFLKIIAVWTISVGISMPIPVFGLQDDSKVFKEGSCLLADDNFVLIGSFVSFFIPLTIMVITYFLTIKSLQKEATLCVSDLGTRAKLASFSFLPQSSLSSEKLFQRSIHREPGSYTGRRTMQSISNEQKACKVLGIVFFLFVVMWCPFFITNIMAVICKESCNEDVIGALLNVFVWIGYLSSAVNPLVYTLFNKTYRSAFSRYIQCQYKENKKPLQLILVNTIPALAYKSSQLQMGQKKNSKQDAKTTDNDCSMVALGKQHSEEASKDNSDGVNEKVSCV
Experiment [8] deals with 5-hydroxytryptamine receptor 1E (Homo sapiens, UniProt P28566).
Sequence of 5-hydroxytryptamine receptor 1E (P28566 whole entry): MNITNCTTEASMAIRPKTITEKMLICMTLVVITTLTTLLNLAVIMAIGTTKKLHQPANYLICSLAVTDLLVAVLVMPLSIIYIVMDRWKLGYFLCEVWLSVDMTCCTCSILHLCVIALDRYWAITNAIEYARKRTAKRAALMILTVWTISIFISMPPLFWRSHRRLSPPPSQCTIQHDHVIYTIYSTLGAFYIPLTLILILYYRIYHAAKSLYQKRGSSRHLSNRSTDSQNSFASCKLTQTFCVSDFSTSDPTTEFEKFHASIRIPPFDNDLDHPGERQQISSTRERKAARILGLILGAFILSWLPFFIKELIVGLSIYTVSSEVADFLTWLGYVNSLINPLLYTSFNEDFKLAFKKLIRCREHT
Experiment [9] deals with 5-hydroxytryptamine receptor 1B (Homo sapiens, UniProt P28222).
Sequence of 5-hydroxytryptamine receptor 1B (P28222 whole entry): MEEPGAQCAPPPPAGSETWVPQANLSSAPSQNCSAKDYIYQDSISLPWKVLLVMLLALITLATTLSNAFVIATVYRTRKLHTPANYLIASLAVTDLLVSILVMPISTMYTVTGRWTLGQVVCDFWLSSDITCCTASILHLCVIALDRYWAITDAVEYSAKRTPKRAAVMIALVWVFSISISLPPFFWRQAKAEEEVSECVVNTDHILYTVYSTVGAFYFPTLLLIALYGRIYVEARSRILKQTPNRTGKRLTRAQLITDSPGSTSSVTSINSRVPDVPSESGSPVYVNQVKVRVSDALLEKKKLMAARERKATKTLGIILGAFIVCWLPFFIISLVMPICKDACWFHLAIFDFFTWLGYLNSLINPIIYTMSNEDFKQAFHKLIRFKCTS
Experiment [10] concerns the target T3, Alpha-1B adrenergic receptor (Homo sapiens, UniProt P35368).
T3 sequence (P35368 whole entry): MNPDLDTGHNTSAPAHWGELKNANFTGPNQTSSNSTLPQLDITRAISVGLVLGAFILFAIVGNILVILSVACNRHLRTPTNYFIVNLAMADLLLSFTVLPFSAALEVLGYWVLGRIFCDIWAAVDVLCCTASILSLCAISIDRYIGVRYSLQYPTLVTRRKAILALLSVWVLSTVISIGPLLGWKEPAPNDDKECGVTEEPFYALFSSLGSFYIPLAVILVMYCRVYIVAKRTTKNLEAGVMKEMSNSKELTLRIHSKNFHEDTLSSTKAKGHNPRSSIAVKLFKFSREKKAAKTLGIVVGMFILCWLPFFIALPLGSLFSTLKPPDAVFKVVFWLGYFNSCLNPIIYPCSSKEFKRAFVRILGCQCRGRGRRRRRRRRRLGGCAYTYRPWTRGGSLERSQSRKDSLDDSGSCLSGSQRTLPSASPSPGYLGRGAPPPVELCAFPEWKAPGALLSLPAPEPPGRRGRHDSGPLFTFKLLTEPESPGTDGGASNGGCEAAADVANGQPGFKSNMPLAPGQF

The next experiment has as its target D(3) dopamine receptor (Homo sapiens, UniProt P35462).
Experiment [11] has as its target 5-hydroxytryptamine receptor 7 (Homo sapiens, UniProt P34969).

Sequence of 5-hydroxytryptamine receptor 7 (P34969 whole entry): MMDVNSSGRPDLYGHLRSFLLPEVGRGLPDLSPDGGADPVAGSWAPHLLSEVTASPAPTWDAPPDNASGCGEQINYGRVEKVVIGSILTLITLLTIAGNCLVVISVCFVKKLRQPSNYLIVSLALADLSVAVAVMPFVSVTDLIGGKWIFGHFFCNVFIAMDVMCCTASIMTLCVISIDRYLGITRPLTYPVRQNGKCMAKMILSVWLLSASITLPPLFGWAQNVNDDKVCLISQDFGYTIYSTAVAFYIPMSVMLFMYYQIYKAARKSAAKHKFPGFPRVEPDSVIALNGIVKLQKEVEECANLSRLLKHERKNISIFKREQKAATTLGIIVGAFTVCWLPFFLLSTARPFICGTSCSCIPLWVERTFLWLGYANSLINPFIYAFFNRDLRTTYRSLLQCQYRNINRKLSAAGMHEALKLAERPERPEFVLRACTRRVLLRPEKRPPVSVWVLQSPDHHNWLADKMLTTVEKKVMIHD
Sequence of 5-hydroxytryptamine receptor 4 (Q29006 whole entry): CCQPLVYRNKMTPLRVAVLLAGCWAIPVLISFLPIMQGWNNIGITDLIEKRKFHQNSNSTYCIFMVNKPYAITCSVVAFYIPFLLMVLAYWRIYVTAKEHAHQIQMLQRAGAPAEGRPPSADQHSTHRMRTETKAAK
Sequence of D(3) dopamine receptor (P35462 as listed by the source): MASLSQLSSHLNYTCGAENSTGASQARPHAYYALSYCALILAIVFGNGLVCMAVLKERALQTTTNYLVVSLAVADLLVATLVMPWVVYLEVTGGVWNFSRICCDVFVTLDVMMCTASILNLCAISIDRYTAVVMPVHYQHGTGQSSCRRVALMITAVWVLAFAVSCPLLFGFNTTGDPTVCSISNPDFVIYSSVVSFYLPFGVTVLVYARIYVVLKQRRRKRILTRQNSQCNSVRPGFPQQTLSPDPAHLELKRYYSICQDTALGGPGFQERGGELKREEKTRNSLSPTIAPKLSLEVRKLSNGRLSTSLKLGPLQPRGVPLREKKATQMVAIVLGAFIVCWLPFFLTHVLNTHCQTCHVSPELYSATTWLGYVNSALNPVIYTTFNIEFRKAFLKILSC
Sequence of Muscarinic acetylcholine receptor M3 (P20309 whole entry): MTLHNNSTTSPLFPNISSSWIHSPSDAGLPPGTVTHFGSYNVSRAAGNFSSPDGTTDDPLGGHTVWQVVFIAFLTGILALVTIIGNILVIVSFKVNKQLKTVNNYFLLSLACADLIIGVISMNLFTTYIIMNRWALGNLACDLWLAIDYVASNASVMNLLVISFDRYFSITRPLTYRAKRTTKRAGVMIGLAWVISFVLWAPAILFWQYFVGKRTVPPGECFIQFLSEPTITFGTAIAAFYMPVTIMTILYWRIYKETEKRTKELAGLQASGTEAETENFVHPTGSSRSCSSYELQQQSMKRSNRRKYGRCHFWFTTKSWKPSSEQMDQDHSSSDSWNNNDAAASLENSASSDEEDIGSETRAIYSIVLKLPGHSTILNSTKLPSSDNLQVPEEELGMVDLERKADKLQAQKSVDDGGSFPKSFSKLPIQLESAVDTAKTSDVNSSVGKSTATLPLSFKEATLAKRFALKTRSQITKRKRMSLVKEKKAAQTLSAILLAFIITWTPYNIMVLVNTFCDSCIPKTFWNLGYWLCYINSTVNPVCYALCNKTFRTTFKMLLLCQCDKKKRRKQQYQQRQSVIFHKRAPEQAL
Sequence of 5-hydroxytryptamine receptor 2B (P41595 whole entry): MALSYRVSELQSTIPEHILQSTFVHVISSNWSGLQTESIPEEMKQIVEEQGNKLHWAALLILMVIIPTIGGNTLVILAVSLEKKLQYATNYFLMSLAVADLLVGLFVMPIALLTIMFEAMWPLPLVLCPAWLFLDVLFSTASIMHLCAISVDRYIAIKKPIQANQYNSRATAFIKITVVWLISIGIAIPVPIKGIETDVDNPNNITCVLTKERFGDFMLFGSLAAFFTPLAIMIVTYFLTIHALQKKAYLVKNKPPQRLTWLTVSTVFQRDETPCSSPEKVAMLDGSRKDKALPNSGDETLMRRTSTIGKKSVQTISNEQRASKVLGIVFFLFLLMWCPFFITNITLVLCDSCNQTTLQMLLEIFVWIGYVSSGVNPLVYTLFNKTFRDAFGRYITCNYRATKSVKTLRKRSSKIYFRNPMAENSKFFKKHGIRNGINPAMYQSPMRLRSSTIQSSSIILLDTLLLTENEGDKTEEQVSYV

Consider `CCCCCCOc1nsnc1C1=CCCN(C)C1`, for which the Ki in experiment [1] is 19.9 nM; in [2] it was 39.8 nM; in experiment [3], 251 nM; in experiment [4], 1260 nM; at D(2) dopamine receptor, 1000 nM; in experiment [5], 316 nM. For the same compound, the Ki was 39.8 nM in experiment [6]; 126 nM in experiment [7]; 2510 nM in experiment [8]; 50.1 nM in experiment [9]; 1580 nM in experiment [10]; 398 nM at D(3) dopamine receptor. The Ki in [11] worked out at 126 nM.
